# Experimental data reported in US9073926B2, “Heterocyclic compounds containing a pyrrolopyridine or benzimidazole core” (Boehringer Ingelheim International GmbH, priority 2009, dated 2015).
# Molecular target: Human RSK2 (Homo sapiens (Human), UniProt P51812)
# Assay: Human RSK2 Assay (Kinase Glo Plus, residual ATP)
# Format: biochemical
# Conditions: 0.75 nM His-RSK2, 0.75 μM ATP, 1.0 μM S6 Kinase/RSK Substrate Peptide 1
# Procedure: Experimental Method A: Human RSK2 Assay
# Compounds are assessed for their ability to inhibit the phosphorylation of a substrate peptide by RSK2.
# Human RSK2 protein, purchased from Invitrogen, is used to measure kinase activity utilizing Kinase Glo Plus (Promega) a homogeneous assay technology, which uses a luciferin-luciferase based ATP detection reagent to quantify residual ATP. The assay is performed using 0.75 nM His-RSK2, 0.75 μM ATP and 1.0 μM S6 Kinase/RSK Substrate Peptide 1 (Upstate, catalog #12-124), in assay buffer consisting of 25 mM HEPES, pH 7.5, 10 mM MgCl2, 5 mM MnCl2, 50 mM KCl, 0.2% BSA, 0.01% CHAPS, 100 μM Na3VO4, 0.5 mM DTT, and 1% DMSO. Solutions of test compounds at various concentrations are prepared by 1:3 fold serial dilution of a 1 mM solution of compound in DMSO. The DMSO solutions are further diluted with assay buffer to a final concentration of DMSO of 5%.
# The assay is performed in a 384 well, white, non-binding plate (Corning, catalogue #3574). Solutions of test compounds (10 μL) are transferred to a dry assay plate, followed by addition of 20 μL kinase and 20 μL ATP+Substrate Peptide 1 described above. The kinase reaction mixture is incubated for 90 minutes at 28° C. followed by addition of 30 μL of ATP detection reagent for 15 minutes at room temperature. The relative light unit (RLU) signal is measured on a LJL Analyst (Molecular Devices) in luminescence mode using 384 aperture. The RLU signals were converted to percent of control (POC) values using the formula: POC=100*(BCTRL−Signal)/(BCTRL−PCTRL), where Signal is the test well RLU signal, BCTRL is the average of background (negative control), which consists of ATP+peptide and compound buffer, well signals on the plate, and PCTRL is the average of positive control, which consists of kinase, ATP+peptide, and compound buffer, well signals on the plate. For concentration-responsive compounds, POC as a function of test compound concentration are fitted to a 4-parameter logistic equation of the form: Y=A+(B−A)/[1+(x/C)^D], where A, B, C, and D are fitted parameters (parameter B is fixed at zero POC), and x and y are the independent and dependent variables, respectively. The IC50 (50% inhibitory concentration) is determined as the inflection point parameter, C. Experimental Method B: Human RSK2 Trans-Reporter Assay
# Sequence of Human RSK2 (P51812 whole entry): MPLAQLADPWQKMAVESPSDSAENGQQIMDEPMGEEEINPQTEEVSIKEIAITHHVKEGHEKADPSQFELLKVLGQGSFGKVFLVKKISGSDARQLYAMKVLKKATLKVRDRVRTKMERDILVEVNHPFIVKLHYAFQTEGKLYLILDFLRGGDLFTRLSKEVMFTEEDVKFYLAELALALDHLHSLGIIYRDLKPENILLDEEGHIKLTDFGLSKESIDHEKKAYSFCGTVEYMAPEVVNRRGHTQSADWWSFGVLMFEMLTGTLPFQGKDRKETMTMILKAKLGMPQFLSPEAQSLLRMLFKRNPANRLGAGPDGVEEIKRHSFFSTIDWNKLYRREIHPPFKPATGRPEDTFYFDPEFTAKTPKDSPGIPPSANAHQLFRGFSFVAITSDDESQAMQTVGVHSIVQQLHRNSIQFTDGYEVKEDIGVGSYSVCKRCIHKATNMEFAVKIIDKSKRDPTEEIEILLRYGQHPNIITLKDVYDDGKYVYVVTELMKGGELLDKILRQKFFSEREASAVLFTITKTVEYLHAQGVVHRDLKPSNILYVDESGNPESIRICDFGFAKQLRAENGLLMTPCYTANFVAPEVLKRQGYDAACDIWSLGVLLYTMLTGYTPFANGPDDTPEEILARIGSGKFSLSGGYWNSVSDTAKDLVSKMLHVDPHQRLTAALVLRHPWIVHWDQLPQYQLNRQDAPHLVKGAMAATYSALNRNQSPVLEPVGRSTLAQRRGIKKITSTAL
row,Compound,IC50
1,"O=C(Nc1nc2cc(Cl)cc(CN3CCOCC3)c2[nH]1)c1ccc2cc3n(c2n1)CCCNC3=O [Example 49, N-[5-chloro-7-(morpholin-4-ylmethyl)-1H-benzimidazol-2-yl]-6-oxo-7,8,9,10-tetrahydro-6H-pyrido[3′,2′:4,5]pyrrolo[1,2-a][1,4]diazepine-2-carboxamide]",6.7 nM
2,"CC1(C)CNC(=O)c2cc3ccc(C(=O)Nc4nc5cc(Cl)ccc5[nH]4)nc3n2C1 [Example 50, N-(5-chloro-1H-benzimidazol-2-yl)-9,9-dimethyl-6-oxo-7,8,9,10-tetrahydro-6H-pyrido[3′,2′:4,5]pyrrolo[1,2-a][1,4]diazepine-2-carboxamide]",55 nM
3,"Cn1c(NC(=O)c2ccc3cc4n(c3n2)CC(C)(C)CNC4=O)nc2ccccc21 [Example 52, 9,9-dimethyl-N-(1-methyl-1H-benzimidazol-2-yl)-6-oxo-7,8,9,10-tetrahydro-6H-pyrido[3′,2′:4,5]pyrrolo[1,2-a][1,4]diazepine-2-carboxamide]",2500 nM
4,"CC(C)n1c(NC(=O)c2ccc3cc4n(c3n2)CC(C)(C)CNC4=O)nc2ccccc21 [Example 54, 9,9-dimethyl-6-oxo-N-[1-(propan-2-yl)-1H-benzimidazol-2-yl]-7,8,9,10-tetrahydro-6H-pyrido[3′,2′:4,5]pyrrolo[1,2-a][1,4]diazepine-2-carboxamide]",1300 nM
5,"CCn1c(NC(=O)c2ccc3cc4n(c3n2)CC(C)(C)CNC4=O)nc2ccccc21 [Example 56, N-(1-ethyl-1H-benzimidazol-2-yl)-9,9-dimethyl-6-oxo-7,8,9,10-tetrahydro-6H-pyrido[3′,2′:4,5]pyrrolo[1,2-a][1,4]diazepine-2-carboxamide]",195 nM
6,"CN(C)CCCn1c(NC(=O)c2ccc3cc4n(c3n2)CC(C)(C)CNC4=O)nc2ccccc21 [Example 58, N-{1-[3-(dimethylamino)propyl]-1H-benzimidazol-2-yl}-9,9-dimethyl-6-oxo-7,8,9,10-tetrahydro-6H-pyrido[3′,2′:4,5]pyrrolo[1,2-a][1,4]diazepine-2-carboxamide]",2300 nM
7,"C[C@@H]1CNC(=O)c2cc3ccc(C(=O)Nc4cnn(Cc5ccccc5)c4)nc3n21 [Example 59, (9R)-N-(1-benzyl-1H-pyrazol-4-yl)-9-methyl-6-oxo-6,7,8,9-tetrahydropyrido[3′,2′:4,5]pyrrolo[1,2-a]pyrazine-2-carboxamide]",0.2 nM
8,"CC(C)n1ncc2cc(NC(=O)c3ccc4cc5n(c4n3)[C@@H](C)CNC5=O)cnc21 [Example 63, (9S)-9-methyl-6-oxo-N-[1-(propan-2-yl)-1H-pyrazolo[3,4-b]pyridin-5-yl]-6,7,8,9-tetrahydropyrido[3′,2′:4,5]pyrrolo[1,2-a]pyrazine-2-carboxamide]",84 nM
9,"C[C@@H]1CNC(=O)c2cc3ccc(C(=O)Nc4cnc5ccccc5c4)nc3n21 [Example 64, (9R)-9-methyl-6-oxo-N-(quinolin-3-yl)-6,7,8,9-tetrahydropyrido[3′,2′:4,5]pyrrolo[1,2-a]pyrazine-2-carboxamide]",3 nM
10,"C[C@H]1CNC(=O)c2cc3ccc(C(=O)Nc4cnc5ccccc5c4)nc3n21 [Example 65, (9S)-9-methyl-6-oxo-N-(quinolin-3-yl)-6,7,8,9-tetrahydropyrido[3′,2′:4,5]pyrrolo[1,2-a]pyrazine-2-carboxamide]",34 nM
11,"CC(C)n1ncc2cc(NC(=O)c3ccc4cc5n(c4n3)[C@H](C)CNC5=O)cnc21 [Example 66, (9R)-9-methyl-6-oxo-N-[1-(propan-2-yl)-1H-pyrazolo[3,4-b]pyridin-5-yl]-6,7,8,9-tetrahydropyrido[3′,2′:4,5]pyrrolo[1,2-a]pyrazine-2-carboxamide]",4 nM

# Now from value to molecule:
row,IC50,Compound
1,0.78 nM,"CC1CCNC(=O)c2cc3ccc(C(=O)Nc4cnn(C)c4)nc3n21 (centres unmarked) [Example 40, 10-methyl-N-(1-methyl-1H-pyrazol-4-yl)-6-oxo-7,8,9,10-tetrahydro-6H-pyrido[3′,2′:4,5]pyrrolo[1,2-a][1,4]diazepine-2-carboxamide]"
2,4.8 nM,"Cn1cc(NC(=O)c2ccc3cc4n(c3n2)CCCNC4=O)cn1 [Example 41, N-(1-methyl-1H-pyrazol-4-yl)-6-oxo-7,8,9,10-tetrahydro-6H-pyrido[3′,2′:4,5]pyrrolo[1,2-a][1,4]diazepine-2-carboxamide]"
3,72 nM,"Cn1cc(NC(=O)c2ccc3cc4n(c3n2)CC(C)(C)CNC4=O)cn1 [Example 42, 9,9-dimethyl-N-(1-methyl-1H-pyrazol-4-yl)-6-oxo-7,8,9,10-tetrahydro-6H-pyrido[3′,2′:4,5]pyrrolo[1,2-a][1,4]diazepine-2-carboxamide]"
4,1.1 nM,"CC1CCNC(=O)c2cc3ccc(C(=O)Nc4cnn(C(C)(C)C)c4)nc3n21 (centres unmarked) [Example 43, N-(1-tert-butyl-1H-pyrazol-4-yl)-10-methyl-6-oxo-7,8,9,10-tetrahydro-6H-pyrido[3′,2′:4,5]pyrrolo[1,2-a][1,4]diazepine-2-carboxamide]"
5,9.7 nM,"CC(C)(C)n1cc(NC(=O)c2ccc3cc4n(c3n2)CCCNC4=O)cn1 [Example 44, N-(1-tert-butyl-1H-pyrazol-4-yl)-6-oxo-7,8,9,10-tetrahydro-6H-pyrido[3′,2′:4,5]pyrrolo[1,2-a][1,4]diazepine-2-carboxamide]"
6,50 nM,"CC1(C)CNC(=O)c2cc3ccc(C(=O)Nc4cnn(C(C)(C)C)c4)nc3n2C1 [Example 45, N-(1-tert-butyl-1H-pyrazol-4-yl)-9,9-dimethyl-6-oxo-7,8,9,10-tetrahydro-6H-pyrido[3′,2′:4,5]pyrrolo[1,2-a][1,4]diazepine-2-carboxamide]"
7,0.39 nM,"CC1CCNC(=O)c2cc3ccc(C(=O)Nc4cnn(Cc5ccccc5)c4)nc3n21 (centres unmarked) [Example 46, N-(1-benzyl-1H-pyrazol-4-yl)-10-methyl-6-oxo-7,8,9,10-tetrahydro-6H-pyrido[3′,2′:4,5]pyrrolo[1,2-a][1,4]diazepine-2-carboxamide]"
8,3.8 nM,"O=C(Nc1cnn(Cc2ccccc2)c1)c1ccc2cc3n(c2n1)CCCNC3=O [Example 47, N-(1-benzyl-1H-pyrazol-4-yl)-6-oxo-7,8,9,10-tetrahydro-6H-pyrido[3′,2′:4,5]pyrrolo[1,2-a][1,4]diazepine-2-carboxamide]"
9,12 nM,"CC1(C)CNC(=O)c2cc3ccc(C(=O)Nc4cnn(Cc5ccccc5)c4)nc3n2C1 [Example 48, N-(1-benzyl-1H-pyrazol-4-yl)-9,9-dimethyl-6-oxo-7,8,9,10-tetrahydro-6H-pyrido[3′,2′:4,5]pyrrolo[1,2-a][1,4]diazepine-2-carboxamide]"
10,365 nM,"Cn1c(NC(=O)c2ccc3cc4n(c3n2)CCCNC4=O)nc2ccccc21 [Example 51, N-(1-methyl-1H-benzimidazol-2-yl)-6-oxo-7,8,9,10-tetrahydro-6H-pyrido[3′,2′:4,5]pyrrolo[1,2-a][1,4]diazepine-2-carboxamide]"
11,630 nM,"CC(C)n1c(NC(=O)c2ccc3cc4n(c3n2)CCCNC4=O)nc2ccccc21 [Example 53, 6-oxo-N-[1-(propan-2-yl)-1H-benzimidazol-2-yl]-7,8,9,10-tetrahydro-6H-pyrido[3′,2′:4,5]pyrrolo[1,2-a][1,4]diazepine-2-carboxamide]"
12,140 nM,"CCn1c(NC(=O)c2ccc3cc4n(c3n2)CCCNC4=O)nc2ccccc21 [Example 55, N-(1-ethyl-1H-benzimidazol-2-yl)-6-oxo-7,8,9,10-tetrahydro-6H-pyrido[3′,2′:4,5]pyrrolo[1,2-a][1,4]diazepine-2-carboxamide]"
13,245 nM,"CN(C)CCCn1c(NC(=O)c2ccc3cc4n(c3n2)CCCNC4=O)nc2ccccc21 [Example 57, N-{1-[3-(dimethylamino)propyl]-1H-benzimidazol-2-yl}-6-oxo-7,8,9,10-tetrahydro-6H-pyrido[3′,2′:4,5]pyrrolo[1,2-a][1,4]diazepine-2-carboxamide]"
14,12 nM,"C[C@H]1CNC(=O)c2cc3ccc(C(=O)Nc4cnn(Cc5ccccc5)c4)nc3n21 [Example 60, (9S)-N-(1-benzyl-1H-pyrazol-4-yl)-9-methyl-6-oxo-6,7,8,9-tetrahydropyrido[3′,2′:4,5]pyrrolo[1,2-a]pyrazine-2-carboxamide]"
15,6.1 nM,"O=C(Nc1nc2cc(Cl)ccc2[nH]1)c1ccc2cc3n(c2n1)CCCNC3=O [Example 67, N-(5-chloro-1H-benzimidazol-2-yl)-6-oxo-7,8,9,10-tetrahydro-6H-pyrido[3′,2′:4,5]pyrrolo[1,2-a][1,4]diazepine-2-carboxamide]"
